This is an account of results in US6599499B1, “Uses of diterpenoid triepoxides as an anti-proliferative agent” (priority 1999, dated 2003).

The subject of data set [1] is p53 consensus binding site. In words: Electromobility shift assay of p53 DNA binding. The format is cell-based, human. The protocol:
Electromobility Shift Assay (EMSA. HT1080 cells were treated as shown. The EMSA was performed as described previously using an end-labeled 32P-p53 consensus binding site (Santa Cruz Biotechnology, Santa Cruz, Calif.) (Lee et al., supra.)

Data set [2] concerns Dx5 cells. The data set can be described thus: Cell viability by annexin and propidium iodide staining/FACS with z-VAD.fmk, Dx5 cells. The conditions noted are these: Homo sapiens, read-out: cell viability in PG490-treated Dx5 cells. As for the experimental part: Cell death reagents and assays. Cell viability was measured by an MTT assay as recently described (Lee et al. (1999) J. Biol. Chem. 274:13451-13455. z-VAD-fluoromethylketone (z-VAD.fmk) was obtained from Alexis Biochemicals, San Diego, Calif. The effect of z-VAD.fmk on cell viability was analyzed by annexin and propidium iodide staining followed by FACS analysis according to the manufacturer's protocol (Clontech Laboratories, Palo Alto, Calif.). The analysis of apoptosis in histologic sections was done by terminal deoxynucleotidyl transferase (TdT)-mediated d-UTP nick end labeling (TUNEL) of slides from paraffin sections of day 3 tumors harvested from the mice 24 h after the second of two daily treatments with PG490-88 or saline. TUNEL staining was done according to the manufacturer's protocol (Boehringer Mannheim, Indianapolis, Ind.) and then the histology slides were counterstained with methyl green. DNA was isolated from cells for analysis of internucleosomal DNA laddering followed by agarose gel electrophoresis and ethidium bromide staining.

In data set [3] the test system is p53. In words: p53 protein stability in the presence of cycloheximide. The format is cell-based, human. The protocol:
Immunoblot analysis using other antibodies was performed as described above. The band intensity was measured by NIH Image 1.62.
Immunoblotting. Cells were harvested at the conditions and times indicated and lysed using HNET buffer (50 mM HEPES, pH 7.5, 100 mM NaCl, 1 mM EGTA, and 1% Triton X-100) supplemented with 1 mM dithiothreitol, 1 mM phenylmethylsulfonyl fluoride, and protease inhibitors mixture (Roche Molecular Biochemicals). 100 μg of protein was loaded on 10% SDS-PAGE followed by transferring to polyvinylidene difluoride membrane. Immunoblotting was performed as described previously using a p53 mouse monoclonal antibody from Oncogene Research Products. […] Immunoblot analysis using other antibodies was performed as described above. The band intensity was measured by NIH Image 1.62.

Data set [4] concerns p53. In words: p53 translocation into the nucleus, sub-cellular fractionation of MCF-7 cells. Type of data set: cell-based, human. The conditions noted are these: MCF-7, triptolide 20 ng/ml. As for the experimental part:
Sub-cellular fractionation of MCF-7 cells. After treatment with triptolide (5 or 20 ng/ml) and/or doxorubicin (100 nM) cytosolic and nuclear extracts were prepared as previously described (Lee et al. (1988) Gene Anal Tech 5:22-31) and 50 μg of each extract was used in SDS/PAGE immunoblot analysis of p53.

The next data set concerns p53 mRNA. In words: p53 mRNA by RT-PCR in MCF-7 cells. The format is cell-based, human. The note with it: MCF-7 cells treated for 16 h. The protocol:
RT-PCR. RNA was prepared from MCF-7 cells using Rneasy Mini Kit from Qiagen Inc. (Valencia, Calif.). cDNAs were prepared using M-MLV reverse transcriptase (Gibco) with 2 μg of total RNA. 1/20 of total cDNA was used in limited (25 cycles) PCR reactions using Taq polymerase (Gibco). The following primer pairs were used: p53 [SEQ ID NO:1] 5′-[…]-3′ and 5′-[SEQ ID NO:2] TCTTCUTXGGCTGGGGAGAG-3′, mdm2, [SEQ ID NO:3] 5′-[…]-3′ and [SEQ ID NO:4] 5′-[…]-3′, p21, [SEQ ID NO:5] 5′-[…]-3′ and [SEQ ID NO:6] 5′-[…]-3′, and glyceraldehyde-3-phosphate dehydrogenase (GAPDH)- [SEQ ID NO:7] 5′-[…]-3′ and [SEQ ID NO:8] 5′-[…]-3′.
In the experiments shown in FIG. 5, RT-PCR was performed using 2 μg of total RNAs extracted from MCF-7 cells. […] GADPH was used as a loading control. The plasmid pBP100-GL2 which contains a p53-binding site in the mdm2 promoter was transiently transfected into MCF-7 cells, and cellular lysates were used for the luciferase assay.

For another data set, the system named is H23 tumor cells. In words: Nude mouse xenograft, prevention of H23 tumor formation. Type of data set: in vivo, nude mice. As for the experimental part: Nude mouse xenograft model. […] Tumor cells were grown and harvested as described above.
PG490-88 prevents human tumor development in nude mice. The results reported above show cytotoxicity of PG490 on tumor cells in vitro. To extend these studies to an in vivo setting using human tumor cell xenografts, PG490-88 was used, a more easily administered, water soluble prodrug of PG490. H23 tumor cells were implanted intradermally in nude mice and the animals were left untreated or were injected IP daily with PG490-88 starting at the time of implantation. Tumors arose in 5/5 of the untreated mice but no tumors were observed after 5 or 7 weeks of dosing with PG490-88 at doses ranging from 0.25 to 0.75 mg/kg/day (Table 1). PG490-88 treatment was stopped after week 5 in 3 mice per group and was continued for an additional 2 weeks in 2 mice per group. A visible tumor arose during the sixth week in one animal in each group in which PG490-88 dosed at 0.5 mg/kg/day or less was stopped but no more visible tumors appeared in these groups after week 6 (Table 1).
Nude mice were implanted with H23 tumor cells (day 0). Mice were left untreated, or were injected IP with PG490-88 daily from the day of tumor cell implantation for 5 consecutive days per week. PG490-88 was administered for 5 weeks. The untreated group consisted of 5 mice. Three mice in each of the treatment groups received PG490-88 for 5 weeks, and 2 mice in each of these groups were given PG490-88 for 2 additional weeks (7 weeks total). The tumor appeared only in mice in which treatment had been stopped after 5 weeks.

For data set [5] the following is noted: room temperature. As for the experimental part: Stock solutions of PG490-88 (1 mg/ml) were prepared by dissolution in 0.9% NaCl and sterilized by microfiltration using 0.2 μm pore size filters (Supor Acrodisc 25, Gelman Sciences, Ann Arbor, Mich.). The PG490-88 stock solutions were diluted in 0.9% NaCl for IP administration.
A further data set has as its system NF-κB. In words: NF-κB transcriptional activity in HT1080 cells. Type of data set: cell-based, human.
Data set [6] has as its system Dx5 cells. The note with it: cited from earlier work.

Entries after “also recorded” stand apart in the source; their conditions may differ.

As to `CC(C)[C@]12O[C@H]1[C@@H]1O[C@]13[C@]1(O[C@H]1C[C@H]1C4=C(CC[C@@]13C)C(=O)OC4)[C@@H]2O` [PG490, triptolide], the “DNA binding of p53” value in data set [1] (triptolide alone) is listed as “slightly enhanced”. For the same compound, the “effect on doxorubicin-mediated induction of DNA binding of p53” value in data set [1] (triptolide in combination with doxorubicin) is “did not block”. The viability at 0.02 µg/mL in the data set with Dx5 cells [2] was found to be 15%. In addition, the “p53 stability versus untreated cells” value in the data set with p53 [3] (HT1080, triptolide 20 ng/ml 0.5 h prior to cycloheximide 30 μg/ml) is reported as “no difference from untreated cells at 60 min”; in the data set with p53 [3] (MCF-7, triptolide 0.5 h prior to cycloheximide 30 μg/ml), “no difference from untreated cells at 60 min”. Besides, the “localisation of the majority of p53” value in the data set with p53 [4] is “translocated into nuclei”. In the data set with p53 mRNA, the “p53 mRNA level” value is given as “slightly reduced”.
Turning to `CC(C)[C@]12O[C@H]1[C@@H]1O[C@]13[C@]1(O[C@H]1C[C@H]1C4=C(CC[C@@]13C)C(=O)OC4)[C@@H]2OC(=O)CCC(=O)[O-].[Na+]` [PG490-88, 14-succinyl triptolide sodium salt], the “Number of mice in group with a tumor” value was 0/5 in the data set with H23 tumor cells (PG490-88 0.25 mg/kg/day IP, Week 5); 1/5 in the data set on H23 tumor cells (PG490-88 0.25 mg/kg/day IP, Week 6); 1/5 with H23 tumor cells (PG490-88 0.25 mg/kg/day IP, Week 10); 0/5 in the data set on H23 tumor cells (PG490-88 0.375 mg/kg/day IP, Week 5); 1/5 in the data set with H23 tumor cells (PG490-88 0.375 mg/kg/day IP, Week 6); 1/5 in the data set with H23 tumor cells (PG490-88 0.375 mg/kg/day IP, Week 10). For the same compound, the “Number of mice in group with a tumor” value in the data set on H23 tumor cells (PG490-88 0.5 mg/kg/day IP, Week 5) is reported as 0/5; in the data set with H23 tumor cells (PG490-88 0.5 mg/kg/day IP, Week 6), 1/5; in the data set on H23 tumor cells (PG490-88 0.5 mg/kg/day IP, Week 10), 1/5; in the data set on H23 tumor cells (PG490-88 0.75 mg/kg/day IP, Week 5), 0/5; in the data set with H23 tumor cells (PG490-88 0.75 mg/kg/day IP, Week 6), 0/5; with H23 tumor cells (PG490-88 0.75 mg/kg/day IP, Week 10), 0/5. Further, in the data set on H23 tumor cells (PG490-88 0.75 mg/kg/day, 10 weeks of observation, sodium salt, 0.75 mg/kg/day), the H23 tumor formation entry is recorded as “No visible tumors developed in any of the mice; also recorded: completely prevented”. Also, the “half-life in mouse serum” value in [5] is under 5 min.
Consider `COc1cccc2c1C(=O)c1c(O)c3c(c(O)c1C2=O)C[C@@](O)(C(=O)CO)C[C@@H]3O[C@H]1C[C@H](N)[C@H](O)[C@H](C)O1` [doxorubicin, reference compound], for which the NF-κB transcriptional activity result in the data set on NF-κB is recorded as “did not induce”. Also, the “fold more resistant than the MES-SA parent cell line” value in the data set on Dx5 cells [6] was 100 fold.
